Blank lines part the entries; values can stand above or below the molecule they belong to. Active and inactive are the calls of the source. No cut-off for these calls is given here.
Tests used:
HepG2 [1] = experiment: Cytotoxicity against human HepG2 cells assessed as cell viability at 50 uM measured after 48 hrs by MTT assay; format: functional; conditions: HepG2, 48 h, read-out: Activity
SMMC-7721 [2] = experiment: Cytotoxicity against human SMMC7721 cells assessed as cell viability at 50 uM measured after 48 hrs by MTT assay; format: functional; conditions: SMMC-7721, 48 h, read-out: Activity
[3] = target: T1, Retinoic acid receptor RXR-alpha (Homo sapiens) (UniProt P19793); experiment: Transrepression of GAL4-fused RXRalpha LBD (unknown origin) expressed in 293T cells assessed as inhibition of 9-cis-RA-induced transcription at 50 uM measured after 12 hrs by dual-luciferase reporter gene assay; format: cell-based
T1 sequence (whole entry): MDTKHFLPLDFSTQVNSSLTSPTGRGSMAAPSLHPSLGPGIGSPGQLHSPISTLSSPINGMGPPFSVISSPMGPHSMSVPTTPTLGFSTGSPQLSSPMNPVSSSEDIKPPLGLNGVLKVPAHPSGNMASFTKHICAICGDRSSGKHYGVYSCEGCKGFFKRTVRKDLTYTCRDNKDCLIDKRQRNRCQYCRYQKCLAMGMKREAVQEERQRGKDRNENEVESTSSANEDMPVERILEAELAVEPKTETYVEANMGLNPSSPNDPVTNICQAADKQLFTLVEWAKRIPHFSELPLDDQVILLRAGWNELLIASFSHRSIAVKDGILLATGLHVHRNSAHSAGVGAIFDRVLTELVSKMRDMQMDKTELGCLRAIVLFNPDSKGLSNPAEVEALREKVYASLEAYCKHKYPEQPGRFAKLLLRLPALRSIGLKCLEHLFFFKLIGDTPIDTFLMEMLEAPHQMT

MCF7 [4] = experiment: Cytotoxicity against human MCF7 cells assessed as cell viability at 50 uM measured after 48 hrs by MTT assay; format: functional; conditions: MCF7, 48 h, read-out: Activity
HeLa [5] = experiment: Cytotoxicity against human HeLa cells assessed as cell viability at 50 uM measured after 48 hrs by MTT assay; format: functional; conditions: read-out: Activity
[6] = target: T1, Retinoic acid receptor RXR-alpha (Homo sapiens); experiment: (§1) Binding affinity to recombinant human RXRalpha LBD ([…] residues) expressed in Escherichia coli BL21 (DE3) by fluorescence quenching assay
HepG2 [7] = experiment: Cytotoxicity against human HepG2 cells assessed as reduction in cell viability at 50 uM measured after 48 hrs by MTT assay; format: functional, cell-based
HeLa [8] = experiment: Induction of apoptosis in human HeLa cells assessed as increase in cleaved PARP expression at 50 uM by Western blot analysis; format: functional, cell-based; conditions: TDE = time-dependent effect
[9] = target: T2, Retinoic acid receptor RXR-alpha (Homo sapiens, UniProt P19793); experiment: as §1
T2 sequence (P19793 whole entry): T1 sequence (whole entry)

HeLa [10] = experiment: Induction of apoptosis in human HeLa cells assessed as increase in caspase-8 activity at 50 uM measured after 10 hrs by Caspase-Glo luminescence assay; format: functional, cell-based
HeLa [11] = experiment: Cytotoxicity against human HeLa cells assessed as inhibition of cell proliferation at 50 uM measured after 48 hrs by MTT assay; format: functional
SMMC-7721 [12] = experiment: Cytotoxicity against human SMMC7721 cells assessed as reduction in cell viability at 50 uM measured after 48 hrs by MTT assay; format: functional, cell-based
[13] = target: T1, Retinoic acid receptor RXR-alpha (Homo sapiens); experiment: Transrepression of GAL4-fused RXRalpha LBD (unknown origin) expressed in 293T cells assessed as inhibition of 9-cis-RA-induced transcription measured after 12 hrs by dual-luciferase reporter gene assay; format: cell-based
HeLa [14] = experiment: Induction of apoptosis in human HeLa cells assessed as increase in cleaved PARP expression after 24 hrs by Western blot analysis; format: functional, cell-based
MCF7 [15] = experiment: Cytotoxicity against human MCF7 cells assessed as reduction in cell viability at 50 uM measured after 48 hrs by MTT assay; format: functional, cell-based
HeLa [16] = experiment: Induction of apoptosis in human HeLa cells assessed as increase in caspase-3 activity at 50 uM measured after 10 hrs by Caspase-Glo luminescence assay; format: functional, cell-based
HeLa [17] = experiment: Induction of apoptosis in human HeLa cells assessed as increase in caspase-8 activity at 20 uM measured after 10 hrs by Caspase-Glo luminescence assay; format: functional, cell-based
HeLa [18] = experiment: Induction of apoptosis in human HeLa cells assessed as increase in cleaved PARP expression at 20 uM by Western blot analysis; format: functional, cell-based; conditions: TDE = time-dependent effect
HeLa [19] = experiment: Induction of apoptosis in human HeLa cells assessed as increase in caspase-3 activity at 20 uM measured after 10 hrs by Caspase-Glo luminescence assay; format: functional, cell-based

inhibition [3]: Active
Structure (SMILES): COc1cc([C@H]2OC(=O)[C@H]3[C@@H]2CO[C@@H]3c2ccc(O)c(OC)c2)ccc1O
viability at 50 µM (HepG2 [1]): < 50%
viability at 50 µM (SMMC-7721 [2]): < 50%
viability at 50 µM (MCF7 [4]): < 50%
viability at 50 µM (HeLa [5]): < 50%

Kd [9]: 14 µM
Activity [6]: Dose-dependent effect
inhibition [13]: Dose-dependent effect
inhibition [3]: Active
Structure (SMILES): CC(C)=CCOc1cc2c(=O)c3c(O)cc(O)cc3oc2cc1O
Activity (HepG2 [7]): inactive
inhibition at 50 µM (HeLa [11]): > 50%
Activity (SMMC-7721 [12]): inactive
Activity (HeLa [14]): Dose-dependent effect
Activity (HeLa [17]): Active
Activity (HeLa [18]): Tde
Activity (MCF7 [15]): inactive
Activity (HeLa [19]): inactive

inhibition [13]: Dose-dependent effect
inhibition [3]: Active
Structure (SMILES): COc1cc(-c2cc(=O)c3c(O)cc(O)cc3o2)ccc1O

The remaining lines, values behind:

Structure (SMILES): CC(C)c1cc(=O)c2c(O)cc(O)cc2o1
inhibition [3]: Active

Structure (SMILES): COc1ccc2c(=O)c3cccc(O)c3oc2c1
viability at 50 µM (HepG2 [1]): < 50%
viability at 50 µM (SMMC-7721 [2]): < 50%
viability at 50 µM (MCF7 [4]): < 50%
viability at 50 µM (HeLa [5]): < 50%

Structure (SMILES): Cc1cc2c(cc1-c1cc(/C=C/C(=O)O)ccc1O)C(C)(C)CCC2(C)C
Activity [6]: Dose-dependent effect

Structure (SMILES): CC[C@H](C)c1cc(=O)c2c(O)cc(O)cc2o1
Activity (HepG2 [7]): inactive
Activity (HeLa [8]): Tde
Kd [9]: 68.3 µM
Activity [6]: Dose-dependent effect
Activity (HeLa [10]): Active
inhibition at 50 µM (HeLa [11]): > 50%
Activity (SMMC-7721 [12]): inactive
inhibition [13]: Dose-dependent effect
Activity (HeLa [14]): Dose-dependent effect
inhibition [3]: Active
Activity (MCF7 [15]): inactive
Activity (HeLa [16]): inactive

Reference: ChEMBL document CHEMBL4316653, “Cytotoxic Components from Hypericum elodeoides Targeting RXRα and Inducing HeLa Cell Apoptosis through Caspase-8 Activation and PARP Cleavage” (J Nat Prod, 2019)
